Data as given in patent US12409158B2, “Combination therapy for treating cancer” (GONGWIN BIOPHARM CO., LTD, priority 2022, dated 2025).

Columns and labels:
[1] = tested on: mTOR; assay: Western blot of mTOR in M5 tumors; type: in vivo, BALB/c nude mice; conditions: FIG. 7A
[2] = tested on: S6K1; assay: Western blot of S6K1 in M5 tumors; type: in vivo, BALB/c nude mice; conditions: FIG. 7A
[3] = tested on: Ki67; assay: IHC analysis of Ki67 in M5 tumors; type: in vivo, BALB/c nude mice; conditions: FIGS. 9A and 9B
[4] = tested on: ZEB1; assay: Quantitative PCR of ZEB1 mRNA in M5 tumors; type: in vivo, BALB/c nude mice; conditions: FIG. 10
[5] = tested on: H520 cells; assay: H520 lung squamous cell carcinoma xenograft, first experiment; type: in vivo, nude-BALB/c mice
Experimental: (§1) Male nude-BALB/c mice at six-weeks of age were obtained from National Laboratory Animal Breeding and Research Center, Taipei, Taiwan. Mice were housed in each cage and provided them with sterile food and water. The mice were maintained under a constant temperature (22±2° C.) and relative humidity (55±5%), with a 12:12 h light: dark cycle. The Institutional Animal Care and Use Committee (IACUC) at the National […] University (IACUC Approval No. 110003) reviewed and approved the study protocol, in which procedures were in accordance with the Guidelines for the Care and Use of Laboratory Animals published by the Taiwanese Ministry of Health and Welfare. Human non-small cell lung carcinoma cell line (H520) was purchased from ATCC Cell Bank. H520 cells were incubated in RPMI 1640 medium (cat no. 61870044; Gibco; Thermo Fisher, Inc) supplemented with 10% fetal bovine serum in an environmental containing 5% CO2 at 37° C. The experimental treatments were commenced after the implanted H520 cells had formed a detectable tumor mass, which was assessed on day 7 after implantation. […] The growth of the tumors was assessed every seven days by measuring their largest and smallest diameters, and calculated their volume according to the following formula: […] […]

[6] = tested on: H520 cells; assay: H520 lung squamous cell carcinoma xenograft, repeat experiment; type: in vivo, nude-BALB/c mice; conditions: compared to control, FIGS. 13A, 13B
Experimental: as §1

[7] = tested on: A549 cells; assay: A549 lung adenocarcinoma xenograft; type: in vivo, BALB/c nude mice
Experimental: A549 cell line was purchased from ATCC Cell Bank and was cultured in F-12K medium (cat no. ATCC 30-2004) plus 10% fetal bovine serum, at 37° C., 5% CO2. For experiments, cells were grown to 90% confluence. The experimental treatments were commenced after the implanted A549 cells had formed a detectable tumor mass, which was assessed on day 7 after implantation. Briefly, the mice were anesthetized via intraperitoneal injection of Zoletil (Virbac Taiwan, Taipei, Taiwan), and then subcutaneously injected 100 μl of cell suspension containing 6*10^6 viable A549 cells into right posterior leg. […] All treatments were administered via intraperitoneal injection (IP) or intratumoral injection (IT). The control group (Group 1) received normal saline daily, while the other three treatment groups received their corresponding treatments B.I.W (twice a week) or Q.W (once weekly). The PTS100 group (Group 2) received 330 mg/kg of PTS100 (Gongwin Biopharm Holding, Taipei, Taiwan). The normal saline+pemetrexed+Cisplatin group (Group 3) received 100 mg/kg of pemetrexed and 2 mg/kg of cisplatin. The pemetrexed+cisplatin+PTS100 (Group 4, also known as the “combination”) received 100 mg/kg of pemetrexed, 2 mg/kg of cisplatin, and 330 mg/kg of PTS 100. In group 4, when administering in combination, pemetrexed, cisplatin, PTS100 are given at different days, for example, PTS is given at Monday and Thursday, and pemetrexed+cisplatin is given at Wednesday. See Table 4 for the experimental design of the corresponding treatments, dose, injection site, concentration, volume, number of subjects and dosing frequency. The dosage of pemetrexed, cisplatin, and PTS100 were selected such that these drug affects apoptosis, invasion, metastasis, angiogenesis, and the growth signal mechanisms in […] implanted in mice. The growth of the tumors was assessed every seven days by measuring their largest and smallest diameters, and calculated their volume according to the following formula: […] [table]

## Cc1ccc(S(N)(=O)=O)cc1 [PTS, p-Toluenesulfonamide]
[1]
  expression of mTOR: downregulated
[2]
  expression of S6K1: downregulated
[3]
  Ki67 expression: suppressed
[4]
  ZEB1 mRNA expression: downregulation
[5]; PTS100 330 mg/kg IT B.I.W., gemcitabine 160 mg/kg and cisplatin 3 mg/kg IP QW
  tumor growth inhibition: 39.2%
[5]; compared to control, FIG. 12A
  tumor volume / tumor burden: slight decrease
[6]
  tumor volume / tumor burden: slight decrease
[7]; PTS100 330 mg/kg IT B.I.W., pemetrexed 100 mg/kg and cisplatin 2 mg/kg IP QW
  Inhibition (%) (tumor growth inhibition): 84.13%
[7]; compared to control, FIG. 14A
  tumor volume / tumor burden: slight decrease
[7]; compared to the control, FIG. 14B
  tumor weight: significant decrease
